Assays:
[1] = tested on: mouse sarcoma S-180 cells; assay: Antitumor effect against mouse sarcoma S-180 cells; assay type: in vivo; details: 1 mg/kg oral once per day for 5 days; tumor volume on day 7; Balb/c nude mice
Method: 1×10^6 mouse sarcoma S-180 cells were transplanted subcutaneously in Balb/c nude mice (females, 8 weeks old) in groups of 10 each.
The test compound, Compound No. 2-118, was suspended in sterilized distilled water containing 0.5% w/v carboxymethyl cellulose (CMC) and administered orally once per day for 5 days starting on the day the tumor cells were transplanted.
Antitumor activity was assessed according to the following equation to determine the tumor growth inhibitory rate (GI %) on day 7 after the transplantation. GI(%)=(1−Vt/Vc)×100 • Vt: Mean tumor volume on day 7 in a group administered test compound (*) • Vc: Mean tumor volume on day 7 in an untreated control group (*) • *: Tumor volume is defined as ½×[tumor long axis]×[tumor short axis]^2

[2] = tested on: Human colon cancer KM12-HX cells; assay: Antitumor effect against human colon cancer KM12-HX cells (orthotopic transplant in nude mice); assay type: in vivo, mouse; details: 9 doses (days 3-7 and 10-13), tumor weight on day 14, Balb/c nude mice
From the text: Human colon cancer KM12-HX cells were orthotopically transplanted into the cecum of nude mice according to the method of Fu et al. [X. Fu et al., Anticancer Res., 12 (1992)] using Balb/c nude mice (females, 7 weeks old) in groups of 10 each.
Specifically, an incision was made into the left lower abdominal region of each mouse under Abacin anesthesia, after which a thin section of tumor measuring 5 mm on a side was sutured to the cecum using absorbable surgical sutures to perform orthotopic transplant. The incision was sutured using absorbable surgical sutures and the mice were warmed and promptly awakened from anesthesia.
The test compound was suspended in sterilized distilled water containing 0.5% w/v carboxymethyl cellulose (CMC) and administered orally in a total of 9 doses consisting of one dose per day from days 3 to 7 after the tumor cell transplantation and from days 10 to 13 after the transplantation.
Antitumor activity was assessed according to the following equation to determine the tumor weight inhibitory rate (GI %) on day 14 after the transplantation. GI(%)=(1−Vt′/Vc′)×100 • Vt′: Mean tumor weight on day 14 in the group administered the test compound • Vc′: Mean tumor weight on day 14 in an untreated control group

[3] = tested on: mouse malignant melanoma B16-BL6 cells; assay: Inhibitory effect on lung metastasis of mouse malignant melanoma B16-BL6 cells; assay type: in vivo; details: for LMI (%) lung metastasis inhibitory rate: 1 mg/kg per day oral for five days, colonies counted on 10th day, C57BL/6 mice; for Inhibition of lung metastasis (in words): 1 mg/kg oral, lung metastasis accelerating conditions (LPS)
Method: Groups of mice, each group containing ten C57BL/6 mice (female, age: 8 weeks) were transplanted intravenously into the tail vein with 3×10^4 of mouse malignant melanoma B16-BL6 cells.
The mice were, when necessary, administered intravenously into the tail vein with a bacterial lipopolysaccharide (LPS) in an amount of 3 μg each within one hour before transplantation of the melanoma cells so as to accelerate lung metastasis of the melanoma [M. J. Anasagasti et al., J. Natl. Cancer Research, 89, 645-651 (1997).]
As test compounds, Compound No. 2-118, a compound of formula (IV), a compound of formula (V) and indomethacin were employed, and each was suspended in sterilized distilled water containing 0.5% w/v of carboxymethyl cellulose (CMC), and the suspensions were orally administered at a dose of 1 mg/kg per day for five days starting from the day of the melanoma cell transplantation.
Inhibitory activities on lung metastasis of the melanoma cells were evaluated in terms of the lung metastasis inhibitory rate (LMI %) by counting the number of metastatic colonies in the lung on the 10th day after intravenous transplantation of the mouse malignant melanoma B16-BL6 cells at the tail. LMI(%)=(1−Nt/Nc)×100 • Nt: Numbers of lung metastatic colonies on the 10th day in groups administered with the test compounds; and • Nc: Numbers of lung metastatic colonies on the 10th day in control groups which were not administered with the test compounds.

[4] = tested on: mouse colon cancer Colon 26 cells; assay: Test of anticachexia effects in mice bearing mouse colon cancer Colon 26 cells; assay type: in vivo; details: 15 days after tumor transplantation, female CDF1 mice 7 weeks old, control −3.4
[5] = tested on: mouse colon cancer Colon 26 cells; assay: Life-prolonging activity test in mice bearing Colon 26 cells; assay type: in vivo; details: Example 7, animals of Examples 3 and 4; present tense, no data
Method: Observation of the mice used in Example 1 above was continued. The life-prolonging index was determined, based on the number of days each mouse survived, and this value was then used as an indicator of the life-prolonging effects of the test compounds.
It should be noted that, in the case of the group of mice treated with a test compound, oral administration of the respective compound once daily was continued on day 20 after tumor cell transplantation and beyond as well. Life-prolonging index (%)=(St/Sc−1)×100 • St: Median value of survival time (days) of the group of mice treated with a test compound • Sc: Median value of survival time (days) of the control group which were […].
The experiment reported in Example 5 was repeated with the animals used in Example 2. In the case of the group of mice treated with a test compound, oral administration of the respective compound once daily was continued on day 23 after tumor cell transplantation and beyond as well.
The experiment reported in Example 5 is repeated with the animals used in Examples 3 and 4.

[6] = tested on: mouse colon cancer Colon 26 cells; assay: Test of anticachexia effects in mice bearing mouse colon cancer Colon 26 cells; assay type: in vivo
From the text: The test animals were CDF1 mice (females, 8 weeks old). They were employed in groups of 10 for each test. 1×10^6 mouse colon cancer Colon 26 cells were transplanted subcutaneously into each animal.
The test compounds were Compounds No. 1-94 and 2-78 as shown above in Tables 1 and 2, respectively, and having the following formulae: […]
Each test compound was suspended in sterilized distilled water containing 0.5% w/v carboxymethyl cellulose (CMC) and administered orally once per day starting on the day of the tumor cell transplantation.
Each test animal was weighed immediately after tumor cell transplantation, and the weight (A g) was recorded. Each animal was then weighed on day 19 after tumor cell transplantation, and the weight (B g) was recorded. The weight gain on day 19 after tumor cell transplantation was calculated as B−A=Δgt for the test animals. The experiment was repeated with two control groups: the first control group (control group 1) was transplanted with the tumor cells but were not treated with any test compound, and the weight gain is reported as Δgc1; the second control group (control group 2) were not transplanted with the tumor cells and were not treated with any test compound, and the weight gain is reported as Δgc2. The body weight recovery rate was determined according to the following formula based on the weight gain on day 19 after tumor cell transplantation, and this value was used as an indicator of the anticachexia effect. Body weight recovery rate (%)=(Δgt−Δgc1)/(Δgc2−Δgc1)×100
(§1) The procedure described in Example 1 was repeated, but using the compound of formula (III) as the test compound, and comparing the weight gain (Δgt) of the test group of animals to which the compound of formula (III) had been administered with a control group (Δgc) into which the tumor cells had been transplanted but to which no anti-tumor compound had been administered. The test animals were female CDF1 mice, 16 weeks old. Also, the weight gain was measured 22 days after tumor transplantation. The average body weight of each group of animals immediately after tumor transplantation was 25 to 26 g.
as §1, with “Example 2” for “Example 1”, “formula (IV)” for “formula (III)”, “mice, 7” for “mice, 16”, “measured 15” for “measured 22”, “was 20” for “was 25”, “to 21” for “to 26”
Test compounds [the compounds of formula (V), (VI), (VII), (VIII), (IX), (X), (XI), (XII), (XIII) and (XIV)] are administered in the same manner as described in Example 2.

[7] = tested on: experimental colonic polyposis; details: literature (Oshima 1996; Reddy 1996); cited from earlier work
[8] = tested on: human colon cancer cell lines; details: literature (Sheng 1997); COX-2 expressing line HCA-7; cited from earlier work
[9] = LPS 3 μg i.v. before transplantation

## Cc1cc(-c2ccc(C)c(C)c2)n(-c2ccc(S(N)(=O)=O)cc2)c1 [Compound 2-118, 2-(3,4-dimethylphenyl)-4-methyl-1-(4-sulfamoylphenyl)pyrrole]
[1]
  GI (%) tumor growth inhibitory rate: 54%
[2]; 0.3 mg/kg oral
  GI(%) tumor weight inhibitory rate: 12%
[2]; 1 mg/kg oral
  GI(%) tumor weight inhibitory rate: 35%
[2]; 3 mg/kg oral
  GI(%) tumor weight inhibitory rate: 45%
[2]; 10 mg/kg oral
  GI(%) tumor weight inhibitory rate: 59%
[3]; [9]
  LMI (%) lung metastasis inhibitory rate: 34%
[3]; no LPS administration
  LMI (%) lung metastasis inhibitory rate: 64%

## Cc1ccc(-c2cc(C(F)(F)F)nn2-c2ccc(S(N)(=O)=O)cc2)cc1 [Compound (IV), 4-(5-p-tolyl-3-trifluoromethyl-1H-pyrazol-1-yl)benzenesulfonamide]
[4]; 1 mg/kg oral once per day
  Average Weight Gain (Δg): -1.2 g
[4]; 3 mg/kg oral once per day
  Average Weight Gain (Δg): -1.3 g
[4]; 10 mg/kg oral once per day
  Average Weight Gain (Δg): -0.6 g
[3]
  Inhibition of lung metastasis (in words): had no such inhibitory activity
[3]; [9]
  LMI (%) lung metastasis inhibitory rate: 9%
[5]
  Life-prolongation (in words): exhibit pronounced life-prolongation
[6]; Examples 1-3, 1-10 mg/kg oral
  Inhibition of mouse tumor cachexia and weight loss (in words): inhibited mouse tumor cachexia and reduced weight loss

## CS(=O)(=O)Nc1cc2c(cc1Sc1ccc(F)cc1F)C(=O)CC2 [Compound (V), N-[6-(2,4-difluorophenylthio)-1-oxoindan-5-yl]methanesulfonamide]
[3]
  Inhibition of lung metastasis (in words): had no such inhibitory activity
[3]; [9]
  LMI (%) lung metastasis inhibitory rate: 1%
[5]
  Life-prolongation (in words): exhibit pronounced life-prolongation
[6]; Example 4, written in present tense, no data
  Inhibition of mouse tumor cachexia and recovery of body weight loss (in words): inhibit mouse tumor cachexia and recover loss of average of body weight

## CS(=O)(=O)c1ccc(C2=C(c3ccc(F)c(F)c3)C(=O)OC2)cc1 [MF-tricyclic]
[7]
  Inhibition of occurrence of experimental colonic polyposis (in words): inhibit the occurrence of experimental colonic polyposis

## CS(=O)(=O)c1ccc(-n2nc(C(F)(F)F)cc2-c2ccc(F)cc2)cc1 [SC-58125]
[8]
  Growth inhibitory effects against human colon cancer cell lines (in words): exhibits growth inhibitory effects against certain types of human colon cancer cell lines

Source: patent publication US7745481B2, “Methods and compositions for the treatment and prevention of tumors, tumor-related disorders and cachexia” (Daiichi Sankyo Company, Limited, priority 1997, dated 2010)
